In patent US10626144B2, “Peptide derivatives and uses thereof” (Nosopharm, priority 2014, dated 2020):
Square brackets hold non-standard residues; d marks the D form. Peptide text beside a SMILES is read from it. ξ: configuration not given here. Phe(3-CF3) = N[C@@H](Cc1cccc(C(F)(F)F)c1)C(=O)O; Phe(4-CF3) = N[C@@H](Cc1ccc(C(F)(F)F)cc1)C(=O)O; Phe(4-CONH2) = NC(=O)c1ccc(C[C@H](N)C(=O)O)cc1; Phe(2-CF3) = N[C@@H](Cc1ccccc1C(F)(F)F)C(=O)O; Phe(2,4-Me2) = Cc1ccc(C[C@H](N)C(=O)O)c(C)c1; Phe(2-CONH2) = NC(=O)c1ccccc1C[C@H](N)C(=O)O; Phe(3,4-F2) = N[C@@H](Cc1ccc(F)c(F)c1)C(=O)O; Phe(3,5-F2) = N[C@@H](Cc1cc(F)cc(F)c1)C(=O)O; Phe(3-CN) = N#Cc1cccc(C[C@H](N)C(=O)O)c1; Phe(3-OMe) = COc1cccc(C[C@H](N)C(=O)O)c1; Phe(4-Cl) = N[C@@H](Cc1ccc(Cl)cc1)C(=O)O; Oic(3aξ,7aξ) = O=C(O)[C@@H]1CC2CCCCC2N1; Phe(2-CN) = N#Cc1ccccc1C[C@H](N)C(=O)O; Phe(2-Cl) = N[C@@H](Cc1ccccc1Cl)C(=O)O; Phe(4-F) = N[C@@H](Cc1ccc(F)cc1)C(=O)O; Phe(4-Me) = Cc1ccc(C[C@H](N)C(=O)O)cc1; Dab(3S-OH) = NC[C@H](O)[C@H](N)C(=O)O; Phe(2-Me) = Cc1ccccc1C[C@H](N)C(=O)O; His(π-Me) = Cn1cncc1C[C@H](N)C(=O)O; ΔZArg = N=C(N)NCC/C=C(\N)C(=O)O; NMeK = CN[C@@H](CCCCN)C(=O)O; dOrn = NCCC[C@@H](N)C(=O)O

Columns and labels:
Assay in all cases: MIC, broth microdilution (CLSI), reference strain
Settings in all cases: CAMHB
[1] = system: Escherichia coli ATCC 25922
[2] = system: Staphylococcus aureus ATCC 13709
[3] = system: Pseudomonas aeruginosa ATCC 27853
[4] = system: Acinetobacter baumannii ATCC 19606

SMILES	Ec: MIC Escherichia coli ATCC 25922 [1]	Sa: MIC Staphylococcus aureus ATCC 13709 [2]	Pa: MIC Pseudomonas aeruginosa ATCC 27853 [3]	Ab: MIC Acinetobacter baumannii ATCC 19606 [4]
C[C@H](NC(=O)[C@@H](NC(=O)[C@@H](N)CCCCN)[C@@H](O)CN)C(=O)NCC(=O)N[C@H](CCCN)C(=O)N1C2CCCCC2C[C@H]1C(=O)N[C@@H](Cc1cnc[nH]1)C(=O)N[C@@H](CCCCN)C(=O)N/C(=C\CCNC(=N)N)C(=O)O (stereo partly drawn) [24.75] (H-K[Dab(3S-OH)]AG[dOrn][Oic(3aξ,7aξ)]HK[ΔZArg]-OH)	+ (≤32 μg/mL)	+ (≤32 μg/mL)	− (>32 μg/mL)	− (>32 μg/mL)
Cc1ccc(C[C@H](NC(=O)[C@@H]2CCCN2C(=O)[C@@H](CCCN)NC(=O)CNC(=O)[C@H](C)NC(=O)[C@@H](NC(=O)[C@@H](N)CCCCN)[C@@H](O)CN)C(=O)N[C@@H](CCCCN)C(=O)N/C(=C\CCNC(=N)N)C(=O)O)c(C)c1 [24.78] (H-K[Dab(3S-OH)]AG[dOrn]P[Phe(2,4-Me2)]K[ΔZArg]-OH)	+ (≤32 μg/mL)	++ (≤8 μg/mL)	− (>32 μg/mL)	− (>32 μg/mL)
C[C@H](NC(=O)[C@@H](NC(=O)[C@@H](N)CCCCN)[C@@H](O)CN)C(=O)NCC(=O)N[C@H](CCCN)C(=O)N1CCC[C@H]1C(=O)N[C@@H](Cc1ccccc1C(F)(F)F)C(=O)N[C@@H](CCCCN)C(=O)N/C(=C\CCNC(=N)N)C(=O)O [24.79] (H-K[Dab(3S-OH)]AG[dOrn]P[Phe(2-CF3)]K[ΔZArg]-OH)	+ (≤32 μg/mL)	++ (≤8 μg/mL)	− (>32 μg/mL)	− (>32 μg/mL)
C[C@H](NC(=O)[C@@H](NC(=O)[C@@H](N)CCCCN)[C@@H](O)CN)C(=O)NCC(=O)N[C@H](CCCN)C(=O)N1CCC[C@H]1C(=O)N[C@@H](Cc1ccccc1Cl)C(=O)N[C@@H](CCCCN)C(=O)N/C(=C\CCNC(=N)N)C(=O)O [24.80] (H-K[Dab(3S-OH)]AG[dOrn]P[Phe(2-Cl)]K[ΔZArg]-OH)	+ (≤32 μg/mL)	++ (≤8 μg/mL)	− (>32 μg/mL)	− (>32 μg/mL)
C[C@H](NC(=O)[C@@H](NC(=O)[C@@H](N)CCCCN)[C@@H](O)CN)C(=O)NCC(=O)N[C@H](CCCN)C(=O)N1CCC[C@H]1C(=O)N[C@@H](Cc1ccccc1C#N)C(=O)N[C@@H](CCCCN)C(=O)N/C(=C\CCNC(=N)N)C(=O)O [24.81] (H-K[Dab(3S-OH)]AG[dOrn]P[Phe(2-CN)]K[ΔZArg]-OH)	− (>32 μg/mL)	− (>32 μg/mL)	− (>32 μg/mL)	− (>32 μg/mL)
C[C@H](NC(=O)[C@@H](NC(=O)[C@@H](N)CCCCN)[C@@H](O)CN)C(=O)NCC(=O)N[C@H](CCCN)C(=O)N1CCC[C@H]1C(=O)N[C@@H](Cc1ccccc1C(N)=O)C(=O)N[C@@H](CCCCN)C(=O)N/C(=C\CCNC(=N)N)C(=O)O [24.82] (H-K[Dab(3S-OH)]AG[dOrn]P[Phe(2-CONH2)]K[ΔZArg]-OH)	− (>32 μg/mL)	+ (≤32 μg/mL)	− (>32 μg/mL)	− (>32 μg/mL)
Cc1ccccc1C[C@H](NC(=O)[C@@H]1CCCN1C(=O)[C@@H](CCCN)NC(=O)CNC(=O)[C@H](C)NC(=O)[C@@H](NC(=O)[C@@H](N)CCCCN)[C@@H](O)CN)C(=O)N[C@@H](CCCCN)C(=O)N/C(=C\CCNC(=N)N)C(=O)O [24.83] (H-K[Dab(3S-OH)]AG[dOrn]P[Phe(2-Me)]K[ΔZArg]-OH)	+ (≤32 μg/mL)	++ (≤8 μg/mL)	− (>32 μg/mL)	− (>32 μg/mL)
C[C@H](NC(=O)[C@@H](NC(=O)[C@@H](N)CCCCN)[C@@H](O)CN)C(=O)NCC(=O)N[C@H](CCCN)C(=O)N1CCC[C@H]1C(=O)N[C@@H](Cc1ccc(F)c(F)c1)C(=O)N[C@@H](CCCCN)C(=O)N/C(=C\CCNC(=N)N)C(=O)O [24.84] (H-K[Dab(3S-OH)]AG[dOrn]P[Phe(3,4-F2)]K[ΔZArg]-OH)	++ (≤8 μg/mL)	++ (≤8 μg/mL)	− (>32 μg/mL)	− (>32 μg/mL)
C[C@H](NC(=O)[C@@H](NC(=O)[C@@H](N)CCCCN)[C@@H](O)CN)C(=O)NCC(=O)N[C@H](CCCN)C(=O)N1CCC[C@H]1C(=O)N[C@@H](Cc1cc(F)cc(F)c1)C(=O)N[C@@H](CCCCN)C(=O)N/C(=C\CCNC(=N)N)C(=O)O [24.86] (H-K[Dab(3S-OH)]AG[dOrn]P[Phe(3,5-F2)]K[ΔZArg]-OH)	+ (≤32 μg/mL)	++ (≤8 μg/mL)	− (>32 μg/mL)	− (>32 μg/mL)
C[C@H](NC(=O)[C@@H](NC(=O)[C@@H](N)CCCCN)[C@@H](O)CN)C(=O)NCC(=O)N[C@H](CCCN)C(=O)N1CCC[C@H]1C(=O)N[C@@H](Cc1cccc(C(F)(F)F)c1)C(=O)N[C@@H](CCCCN)C(=O)N/C(=C\CCNC(=N)N)C(=O)O [24.87] (H-K[Dab(3S-OH)]AG[dOrn]P[Phe(3-CF3)]K[ΔZArg]-OH)	+ (≤32 μg/mL)	++ (≤8 μg/mL)	− (>32 μg/mL)	− (>32 μg/mL)
C[C@H](NC(=O)[C@@H](NC(=O)[C@@H](N)CCCCN)[C@@H](O)CN)C(=O)NCC(=O)N[C@H](CCCN)C(=O)N1CCC[C@H]1C(=O)N[C@@H](Cc1cccc(C#N)c1)C(=O)N[C@@H](CCCCN)C(=O)N/C(=C\CCNC(=N)N)C(=O)O [24.89] (H-K[Dab(3S-OH)]AG[dOrn]P[Phe(3-CN)]K[ΔZArg]-OH)	+ (≤32 μg/mL)	++ (≤8 μg/mL)	− (>32 μg/mL)	− (>32 μg/mL)
C[C@H](NC(=O)[C@@H](NC(=O)[C@@H](N)CCCCN)[C@@H](O)CN)C(=O)NCC(=O)N[C@H](CCCN)C(=O)N1CCC[C@H]1C(=O)N[C@@H](Cc1cncn1C)C(=O)N[C@@H](CCCCN)C(=O)N/C(=C\CCNC(=N)N)C(=O)O [24.91] (H-K[Dab(3S-OH)]AG[dOrn]P[His(π-Me)]K[ΔZArg]-OH)	+ (≤32 μg/mL)	+ (≤32 μg/mL)	− (>32 μg/mL)	− (>32 μg/mL)
COc1cccc(C[C@H](NC(=O)[C@@H]2CCCN2C(=O)[C@@H](CCCN)NC(=O)CNC(=O)[C@H](C)NC(=O)[C@@H](NC(=O)[C@@H](N)CCCCN)[C@@H](O)CN)C(=O)N[C@@H](CCCCN)C(=O)N/C(=C\CCNC(=N)N)C(=O)O)c1 [24.92] (H-K[Dab(3S-OH)]AG[dOrn]P[Phe(3-OMe)]K[ΔZArg]-OH)	+ (≤32 μg/mL)	++ (≤8 μg/mL)	− (>32 μg/mL)	− (>32 μg/mL)
C[C@H](NC(=O)[C@@H](NC(=O)[C@@H](N)CCCCN)[C@@H](O)CN)C(=O)NCC(=O)N[C@H](CCCN)C(=O)N1CCC[C@H]1C(=O)N[C@@H](Cc1ccc(C(F)(F)F)cc1)C(=O)N[C@@H](CCCCN)C(=O)N/C(=C\CCNC(=N)N)C(=O)O [24.94] (H-K[Dab(3S-OH)]AG[dOrn]P[Phe(4-CF3)]K[ΔZArg]-OH)	++ (≤8 μg/mL)	++ (≤8 μg/mL)	− (>32 μg/mL)	− (>32 μg/mL)
CN[C@@H](CCCCN)C(=O)N[C@H](C(=O)N[C@@H](C)C(=O)NCC(=O)N[C@H](CCCN)C(=O)N1CCC[C@H]1C(=O)N[C@@H](Cc1ccc(Cl)cc1)C(=O)N[C@@H](CCCCN)C(=O)N/C(=C\CCNC(=N)N)C(=O)O)[C@@H](O)CN [24.98] (H-[NMeK][Dab(3S-OH)]AG[dOrn]P[Phe(4-Cl)]K[ΔZArg]-OH)	+ (≤32 μg/mL)	++ (≤8 μg/mL)	− (>32 μg/mL)	− (>32 μg/mL)
C[C@H](NC(=O)[C@@H](NC(=O)[C@@H](N)CCCCN)[C@@H](O)CN)C(=O)NCC(=O)N[C@H](CCCN)C(=O)N1CCC[C@H]1C(=O)N[C@@H](Cc1ccc(C(N)=O)cc1)C(=O)N[C@@H](CCCCN)C(=O)N/C(=C\CCNC(=N)N)C(=O)O [24.101] (H-K[Dab(3S-OH)]AG[dOrn]P[Phe(4-CONH2)]K[ΔZArg]-OH)	+ (≤32 μg/mL)	++ (≤8 μg/mL)	− (>32 μg/mL)	− (>32 μg/mL)
C[C@H](NC(=O)[C@@H](NC(=O)[C@@H](N)CCCCN)[C@@H](O)CN)C(=O)NCC(=O)N[C@H](CCCN)C(=O)N1CCC[C@H]1C(=O)N[C@@H](Cc1ccc(F)cc1)C(=O)N[C@@H](CCCCN)C(=O)N/C(=C\CCNC(=N)N)C(=O)O [24.102] (H-K[Dab(3S-OH)]AG[dOrn]P[Phe(4-F)]K[ΔZArg]-OH)	+ (≤32 μg/mL)	++ (≤8 μg/mL)	− (>32 μg/mL)	− (>32 μg/mL)
Cc1ccc(C[C@H](NC(=O)[C@@H]2CCCN2C(=O)[C@@H](CCCN)NC(=O)CNC(=O)[C@H](C)NC(=O)[C@@H](NC(=O)[C@@H](N)CCCCN)[C@@H](O)CN)C(=O)N[C@@H](CCCCN)C(=O)N/C(=C\CCNC(=N)N)C(=O)O)cc1 [24.104] (H-K[Dab(3S-OH)]AG[dOrn]P[Phe(4-Me)]K[ΔZArg]-OH)	+ (≤32 μg/mL)	++ (≤8 μg/mL)	− (>32 μg/mL)	− (>32 μg/mL)
